Columns and labels:
[1] = system: pre-pulse inhibition; assay: pre-pulse inhibition (PPI) and startle response; format: in vivo, rat; details: D-serine 600 mg/kg, L-4OHPG 15 mg/kg; for effect on the absolute startle response: control experiment
Experimental: Pre-pulse inhibition was measured using the SR-Lab Startle Response system fitted with a rat enclosure. During the acclimation period, each rat (n=8/group) was habituated with a 5 min interval of 65-dB background noise followed by six 120 dB startle pulses alone, each 40 ms long. This acclimation phase was followed by a 15 min PPI test session where rats were presented with 120 dB startle pulses without a pre-pulse (“pulse alone”) or pulses preceded by a 20 ms pre-pulse of 3, 6, or 12 dB above background noise (“PP3”, “PP6”, or “PP12”, respectively) and ended with five 120 dB startle pulses. PPI was recorded for pre-pulse intensities of 3, 6, and 12 dB, and no stimulus. Each pre-pulse trial was administered in pseudorandom order. The 120 dB pulse alone trials were randomly interspersed within the pre-pulse trials and used for comparison with pre-pulse trials. PPI data were calculated as a percentage of PPI by comparing the pulse-alone versus the PP trials using the formula [100−(response to pre-pulse+120 dB)/(response to 120 dB alone)×100]. Experimenter was masked to treatment during testing and analysis.
Data were analyzed with a 2-way ANOVA with Condition and Treatment as factors with post hoc Bonferroni comparisons.

[2] = target: T1, asc-1 (Rattus norvegicus, UniProt P63116); assay: sodium-independent [3H]D-serine transport into rat forebrain synaptosomes; format: biochemical; details: inhibition of [3H]D-serine transport, rat brain synaptosomes; means of at least two determinations
T1 construct: from tissue; host or cells: rat forebrain P2 (synaptosome) fraction
T1 sequence (P63116 1-530): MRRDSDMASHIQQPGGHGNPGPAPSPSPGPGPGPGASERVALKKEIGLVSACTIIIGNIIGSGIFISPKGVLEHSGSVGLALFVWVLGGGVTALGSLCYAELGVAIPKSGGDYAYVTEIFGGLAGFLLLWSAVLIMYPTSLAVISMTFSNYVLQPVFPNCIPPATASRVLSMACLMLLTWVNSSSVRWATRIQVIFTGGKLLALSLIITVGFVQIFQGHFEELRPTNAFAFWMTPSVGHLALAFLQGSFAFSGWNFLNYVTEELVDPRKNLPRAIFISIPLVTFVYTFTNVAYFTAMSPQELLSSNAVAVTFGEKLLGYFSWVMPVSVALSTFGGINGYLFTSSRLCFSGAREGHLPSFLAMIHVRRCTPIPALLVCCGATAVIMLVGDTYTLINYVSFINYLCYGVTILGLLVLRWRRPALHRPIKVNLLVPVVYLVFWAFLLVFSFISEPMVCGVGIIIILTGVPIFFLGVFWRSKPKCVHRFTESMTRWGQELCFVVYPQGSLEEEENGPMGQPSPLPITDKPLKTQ
T1 sequence (Q794F9 1-527 partner): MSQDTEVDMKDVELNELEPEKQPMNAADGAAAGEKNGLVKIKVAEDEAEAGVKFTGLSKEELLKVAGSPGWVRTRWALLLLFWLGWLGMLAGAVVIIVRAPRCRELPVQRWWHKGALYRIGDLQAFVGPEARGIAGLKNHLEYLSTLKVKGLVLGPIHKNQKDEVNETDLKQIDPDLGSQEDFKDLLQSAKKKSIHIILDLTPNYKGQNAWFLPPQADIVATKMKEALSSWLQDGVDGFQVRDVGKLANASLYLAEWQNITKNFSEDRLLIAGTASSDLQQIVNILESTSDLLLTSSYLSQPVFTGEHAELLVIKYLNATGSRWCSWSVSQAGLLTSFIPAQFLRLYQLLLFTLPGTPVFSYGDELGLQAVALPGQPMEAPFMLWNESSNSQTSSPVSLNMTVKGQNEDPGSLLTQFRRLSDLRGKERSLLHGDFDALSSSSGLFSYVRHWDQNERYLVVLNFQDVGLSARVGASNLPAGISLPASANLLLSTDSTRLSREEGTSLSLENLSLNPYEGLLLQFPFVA
Experimental: Under the assay conditions used, the sodium-independent transport of D-serine by rodent forebrain synaptosomes is mediated by asc-1 (Rutter et al., 2007), and the sodium-dependent transport of D-serine into astrocytes in culture is mediated by an ASCT transporter, ASCT2 according to the literature (Ribeiro et al., 2002).
Synaptosome assays: a P2 fraction of rat forebrain was prepared and assayed immediately. Aliquots of the P2 preparation (approx. 1 mg of original tissue weight) were incubated in sodium-free assay buffer (CholineCl: 128 mM, KCl: 3.5 mM; KH2PO4: 1.5 mM; MgCl2: 1 mM; CaCl2: 1 mM; glucose: 10 mM; Tris-acetate buffer: 10 mM, pH7.4) containing [^3H]D-serine (final concentration of 50 nM) and test compounds in duplicate for 4 mins at room temperature. The synaptosomes containing radiolabel were collected by filtration onto Whatman GF/C filters, and washed twice with ice cold assay buffer. Filters were solubilized in scintillation fluid and radioactivity determined in a beta counter. IC50 values were determined as described for the cell-based assays above.

[3] = system: rat hippocampal astrocytes; assay: [3H]L-serine transport into astrocytes; format: cell-based
Experimental: Cell-based assays: the transport of [^3H]L- or D-serine was measured in primary cultures of rat hippocampal astrocytes or in human embryonic kidney (HEK) cells expressing ASCT transporter sub-types. For the astrocyte assays, cells were plated on either 24- or 96-well plates at a density of 50,000 cells per well. For the HEK assays, cells were plated on coated 96-well plates at a density of 80,000 cells/well. Assays were conducted in duplicate at room temperature in assay buffer consisting of: NaCl: 150 mM, KCl: 2 mM; MgCl2: 1 mM; CaCl2: 1 mM; HEPES: Tris buffer: 10 mM, pH7.4. To assess the sodium-dependence of transport, NaCl was replaced in the assay buffer by equimolar choline chloride. Following aspiration of growth medium and 2 washes with assay buffer, cells were incubated with [^3H]L- or D-serine at a final concentration of 1 μM for 5 min (astrocytes) or 1 min (HEK cells), after which the incubation medium was aspirated and the cells washed twice with ice-cold assay buffer. Cells containing radiolabel were solubilized in 100 μl of 1% Triton-X100 and an aliquot counted in a beta counter. IC50 values were determined over a range of at least 6 concentrations and derived from curve-fitting algorithms available in GraphPad Prism 4.

[4] = system: rat hippocampal astrocytes; assay: [3H]D-serine transport into primary cultures of rat hippocampal astrocytes; format: cell-based; details: Astrocyte; inhibition of [3H]D-serine transport, rat hippocampal astrocytes; means of at least two determinations
[5] = system: schizophrenic patients; details: added on to traditional antipsychotic drugs; Labrie and Roder, 2010; cited from earlier work

N[C@H](C(=O)O)c1ccc(O)cc1 [L-4-hydroxyphenylglycine]
effect on PPI ([1]; PP3, PP6, PP12): reduced PPI, an effect that reached significance at the PP12 intensity level
effect on the absolute startle response [1]: neither L-4OHPG nor D-serine had any significant effect
IC50 [2]: 101 µM

N[C@H](CO)C(=O)O [D-serine]
effect on the absolute startle response [1]: neither L-4OHPG nor D-serine had any significant effect
inhibition of [3H]L-serine transport in astrocytes [3]: completely inhibited
IC50 [4]: 1580 µM
IC50 [2]: 9.4 µM
efficacy in clinical trials of schizophrenic patients [5]: has shown efficacy

From US8741955B2, “D-serine transporter inhibitors as pharmaceutical compositions for the treatment of central nervous system disorders” (Allergan, Inc., priority 2011, dated 2014)
